Assay results published in paper PMC9173640, “PI Kinase-EhGEF2-EhRho5 axis contributes to LPA stimulated macropinocytosis in Entamoeba histolytica” (PLoS Pathogens, 2022).

Biological target: T1, EhRho5 (His-EhRho5; EhRacD) (Entamoeba histolytica, UniProt Q24817)
T1 construct: gene RACD; His-tagged (pET28a+), expressed in E. coli BL21(DE3), PCR-amplified full-length gene
Test: nucleotide loading, GST-RBD pulldown
Conditions: loaded with 10 mM EDTA; indirect read-out by Rhotekin RBD binding

T1 sequence (C4LV55 entry or part of it): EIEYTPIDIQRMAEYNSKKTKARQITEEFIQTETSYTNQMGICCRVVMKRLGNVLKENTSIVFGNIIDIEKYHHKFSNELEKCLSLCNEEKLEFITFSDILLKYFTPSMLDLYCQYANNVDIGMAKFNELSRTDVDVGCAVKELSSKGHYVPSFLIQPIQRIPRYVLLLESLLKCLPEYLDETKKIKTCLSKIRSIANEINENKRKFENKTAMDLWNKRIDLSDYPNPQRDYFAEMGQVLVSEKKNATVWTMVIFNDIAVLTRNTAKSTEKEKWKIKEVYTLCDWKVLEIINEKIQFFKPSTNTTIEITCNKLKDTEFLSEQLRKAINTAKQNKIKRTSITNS
T1 sequence (Q24817 whole entry): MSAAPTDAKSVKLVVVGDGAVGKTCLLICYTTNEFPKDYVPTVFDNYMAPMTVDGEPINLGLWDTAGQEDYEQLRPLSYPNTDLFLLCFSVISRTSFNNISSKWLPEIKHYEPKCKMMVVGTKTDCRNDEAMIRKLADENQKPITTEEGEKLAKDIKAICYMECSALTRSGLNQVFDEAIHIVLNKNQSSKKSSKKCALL

Structure (SMILES)	nucleotide loading, GST-RBD pulldown
Nc1nc2c(ncn2[C@@H]2O[C@H](COP(=O)(O)OP(=O)(O)O)[C@@H](O)[C@H]2O)c(=O)[nH]1 [GDP]	GDP bound inactive EhRho5 from the GMPPNP (GTP analog) bound EhRho5
Nc1nc2c(ncn2[C@@H]2O[C@H](COP(=O)(O)OP(=O)(O)NP(=O)(O)O)[C@@H](O)[C@H]2O)c(=O)[nH]1 [GMPPNP]	nucleotide bound to His-EhRho5 was exchanged with excess of GMPPNP, a nonhydrolyzable GTP analogue
